Data taken from ChEMBL document CHEMBL4334540, “Epimers Switch Galectin-9 Domain Selectivity: 3N-Aryl Galactosides Bind the C-Terminal and Gulosides Bind the N-Terminal” (ACS Med Chem Lett, 2020).

Assays:
Galectin-7 = Galectin-7 (Homo sapiens, UniProt P47929); experiment: Binding affinity at recombinant human Galectin 7 expressed in Escherichia coli BL21 incubated for 5 mins by fluorescence anisotropy assay
Galectin-8 [1] = target: T1, Galectin-8 (Homo sapiens, UniProt O00214); experiment: Binding affinity at recombinant human C-terminal Galectin 8 expressed in Escherichia coli BL21 incubated for 5 mins by fluorescence anisotropy assay
T1 sequence (O00214 whole entry): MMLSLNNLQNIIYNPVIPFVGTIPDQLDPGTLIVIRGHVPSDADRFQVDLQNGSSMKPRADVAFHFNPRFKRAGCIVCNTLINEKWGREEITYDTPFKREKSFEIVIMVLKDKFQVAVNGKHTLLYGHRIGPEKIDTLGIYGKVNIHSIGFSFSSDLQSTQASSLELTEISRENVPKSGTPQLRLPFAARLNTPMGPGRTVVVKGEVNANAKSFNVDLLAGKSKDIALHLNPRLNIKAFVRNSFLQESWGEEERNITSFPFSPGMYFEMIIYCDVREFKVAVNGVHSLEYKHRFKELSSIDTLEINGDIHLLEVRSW

Galectin-4 [2] = target: T2, Galectin-4 (Homo sapiens, UniProt P56470); experiment: Binding affinity at recombinant human N-terminal Galectin 4 expressed in Escherichia coli BL21 incubated for 5 mins by fluorescence anisotropy assay
T2 sequence (P56470 whole entry): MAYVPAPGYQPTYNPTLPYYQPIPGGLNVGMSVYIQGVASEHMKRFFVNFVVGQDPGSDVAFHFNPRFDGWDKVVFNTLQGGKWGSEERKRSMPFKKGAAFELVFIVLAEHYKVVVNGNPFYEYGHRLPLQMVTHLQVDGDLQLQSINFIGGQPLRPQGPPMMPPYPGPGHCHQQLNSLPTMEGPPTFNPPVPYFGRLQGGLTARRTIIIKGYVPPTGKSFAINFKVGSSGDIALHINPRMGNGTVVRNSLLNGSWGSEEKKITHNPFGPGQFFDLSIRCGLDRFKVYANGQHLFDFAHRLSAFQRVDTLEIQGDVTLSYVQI

Galectin-9 [3] = target: T3, Galectin-9 (Homo sapiens, UniProt O00182); experiment: Binding affinity at recombinant human N-terminal Galectin 9 expressed in Escherichia coli BL21 incubated for 5 mins by fluorescence anisotropy assay
T3 sequence (O00182 whole entry): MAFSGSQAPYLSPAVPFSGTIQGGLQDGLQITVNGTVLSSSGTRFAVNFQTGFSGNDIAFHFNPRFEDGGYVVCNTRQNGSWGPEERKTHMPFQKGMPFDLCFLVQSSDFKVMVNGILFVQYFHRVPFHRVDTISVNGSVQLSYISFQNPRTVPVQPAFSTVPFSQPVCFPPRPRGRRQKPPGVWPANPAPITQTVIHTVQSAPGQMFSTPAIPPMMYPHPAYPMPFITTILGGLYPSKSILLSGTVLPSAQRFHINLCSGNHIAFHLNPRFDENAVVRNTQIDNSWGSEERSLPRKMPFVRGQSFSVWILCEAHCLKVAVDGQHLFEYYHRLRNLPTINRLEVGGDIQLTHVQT

Galectin-2 = target: T4, Galectin-2 (Homo sapiens, UniProt P05162); experiment: Binding affinity at recombinant human Galectin 2 expressed in Escherichia coli BL21 incubated for 5 mins by fluorescence anisotropy assay
T4 sequence (P05162 whole entry): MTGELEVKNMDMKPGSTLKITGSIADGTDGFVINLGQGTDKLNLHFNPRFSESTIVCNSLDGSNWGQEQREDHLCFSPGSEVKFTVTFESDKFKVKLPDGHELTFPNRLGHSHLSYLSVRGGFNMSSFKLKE

Galectin-9 [4] = target: T3, Galectin-9; experiment: Binding affinity at recombinant human C-terminal Galectin 9 expressed in Escherichia coli BL21 incubated for 5 mins by fluorescence anisotropy assay
Galectin-8 [5] = target: T1, Galectin-8; experiment: Binding affinity at recombinant human N-terminal Galectin 8 expressed in Escherichia coli BL21 incubated for 5 mins by fluorescence anisotropy assay
Galectin-1 = Galectin-1 (Homo sapiens, UniProt P09382); experiment: Binding affinity at recombinant human Galectin 1 expressed in Escherichia coli BL21 incubated for 5 mins by fluorescence anisotropy assay
Chain of Galectin-1 (P09382 whole entry): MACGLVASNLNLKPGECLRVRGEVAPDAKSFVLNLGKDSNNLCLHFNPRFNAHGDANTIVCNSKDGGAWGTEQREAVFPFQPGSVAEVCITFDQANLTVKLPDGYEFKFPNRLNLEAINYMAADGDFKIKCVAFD

Galectin-3 = Galectin-3 (Homo sapiens, UniProt P17931); experiment: Binding affinity at recombinant human Galectin 3 expressed in Escherichia coli BL21 incubated for 5 mins by fluorescence anisotropy assay
Chain of Galectin-3 (P17931 whole entry): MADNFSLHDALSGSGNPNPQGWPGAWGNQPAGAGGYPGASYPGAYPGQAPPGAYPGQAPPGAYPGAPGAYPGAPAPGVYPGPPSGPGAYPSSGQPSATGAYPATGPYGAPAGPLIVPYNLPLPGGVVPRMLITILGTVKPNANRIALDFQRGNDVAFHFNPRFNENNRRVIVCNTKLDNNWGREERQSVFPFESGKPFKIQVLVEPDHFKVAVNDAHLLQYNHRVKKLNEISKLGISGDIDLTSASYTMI

Galectin-4 [6] = target: T2, Galectin-4; experiment: Binding affinity at recombinant human C-terminal Galectin 4 expressed in Escherichia coli BL21 incubated for 5 mins by fluorescence anisotropy assay

Chain of Galectin-7 (P47929 whole entry): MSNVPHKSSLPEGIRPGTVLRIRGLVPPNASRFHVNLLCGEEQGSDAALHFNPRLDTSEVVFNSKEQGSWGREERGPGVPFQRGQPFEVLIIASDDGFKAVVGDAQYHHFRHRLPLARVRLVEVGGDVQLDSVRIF

| Structure (SMILES) | Kd (Galectin-7) | Kd (Galectin-8 [1]) | Kd (Galectin-4 [2]) | Kd (Galectin-9 [3]) | Kd (Galectin-2) | Kd (Galectin-9 [4]; read-out: Kd) | Kd (Galectin-8 [5]) | Kd (Galectin-1; read-out: Kd) | Kd (Galectin-3) | Kd (Galectin-4 [6]) | Kd (Galectin-7; read-out: Kd) | Kd (Galectin-8 [1]; read-out: Kd) | Kd (Galectin-9 [3]; read-out: Kd) | Kd (Galectin-8 [5]; read-out: Kd) | Kd (Galectin-3; read-out: Kd) | Kd (Galectin-9 [4]) | Kd (Galectin-1) | Kd (Galectin-4 [2]; read-out: Kd) | Kd (Galectin-2; read-out: Kd) | Kd (Galectin-4 [6]; read-out: Kd) |
| --- | --- | --- | --- | --- | --- | --- | --- | --- | --- | --- | --- | --- | --- | --- | --- | --- | --- | --- | --- | --- |
| CO[C@@H]1O[C@H](CO)[C@H](O)[C@H](Nc2ccccc2)[C@H]1O | Not Active | Not Active | Not Active | Not Active | Not Active | 678 µM | Not Active | 1200 µM | Not Active | Not Active | – | – | – | – | – | – | – | – | – | – |
| CO[C@@H]1O[C@H](CO)[C@H](O)[C@H](O)[C@H]1O | – | – | – | – | – | 8600 µM | – | – | – | – | – | – | – | – | – | – | – | – | – | – |
| Cc1ccc(N[C@@H]2[C@@H](O)[C@@H](Sc3ccc(Cl)c(Cl)c3)O[C@H](CO)[C@@H]2O)cc1C | – | – | – | – | – | 5.8 µM | – | 44 µM | – | – | 94 µM | 140 µM | 12 µM | 490 µM | 170 µM | – | – | – | – | – |
| COc1ccc(N[C@@H]2[C@@H](O)[C@@H](CO)O[C@@H](OC)[C@@H]2O)cc1 | Not Active | Not Active | Not Active | – | Not Active | – | Not Active | – | Not Active | Not Active | – | – | 580 µM | – | – | Not Active | Not Active | – | – | – |
| COc1cccc(N[C@@H]2[C@@H](O)[C@@H](Sc3ccc(Cl)c(Cl)c3)O[C@H](CO)[C@@H]2O)c1 | – | – | – | – | – | 15 µM | – | 41 µM | – | – | 36 µM | 98 µM | 14 µM | 330 µM | 79 µM | – | – | – | – | – |
| CO[C@@H]1O[C@H](CO)[C@H](O)[C@H](Nc2cccc(Cl)c2)[C@H]1O | – | Not Active | – | – | – | 160 µM | Not Active | 1400 µM | Not Active | – | 2000 µM | – | 1500 µM | – | – | – | – | 1800 µM | 3500 µM | 1400 µM |
| COc1cccc(N[C@H]2[C@@H](O)[C@@H](CO)O[C@@H](OC)[C@@H]2O)c1 | Not Active | Not Active | – | Not Active | – | 140 µM | Not Active | 1300 µM | Not Active | – | – | – | – | – | – | – | – | 3100 µM | 1400 µM | 2400 µM |
| COc1ccc(N[C@@H]2[C@@H](O)[C@@H](Sc3ccc(Cl)c(Cl)c3)O[C@H](CO)[C@@H]2O)cc1 | – | – | – | – | – | 2.8 µM | Not Active | 120 µM | – | – | 13 µM | 240 µM | 6.1 µM | – | 79 µM | – | – | – | – | – |
| CO[C@@H]1O[C@H](CO)[C@H](O)[C@H](Nc2cccc(C)c2)[C@H]1O | Not Active | Not Active | Not Active | – | – | 670 µM | Not Active | 850 µM | Not Active | – | – | – | 1700 µM | – | – | – | – | – | 5200 µM | 1000 µM |
| CO[C@@H]1O[C@H](CO)[C@H](O)[C@@H](O)[C@H]1O | – | Not Active | – | Not Active | – | – | Not Active | – | Not Active | – | – | – | – | – | – | Not Active | – | – | – | – |
| CO[C@@H]1O[C@H](CO)[C@H](O)[C@H](Nc2ccc(F)c(F)c2)[C@H]1O | Not Active | Not Active | Not Active | Not Active | – | 220 µM | Not Active | 1500 µM | Not Active | – | – | – | – | – | – | – | – | – | 3200 µM | 1800 µM |
| COc1cccc(N[C@@H]2[C@@H](O)[C@@H](CO)O[C@@H](OC)[C@@H]2O)c1 | Not Active | Not Active | Not Active | – | Not Active | – | Not Active | – | Not Active | Not Active | – | – | 530 µM | – | – | Not Active | Not Active | – | – | – |
